Data as given in patent US20110229499A1, “METHOD FOR TREATMENT OF VASCULAR HYPERPERMEABILITY” (priority 2010, published 2011).

Test system: Rat lung microvascular endothelial cells
Test: Adherens junction damage, beta catenin immunofluorescence
Type: cell-based
Settings: SCF 100 ng/ml pre-treatment 1 hour
Description: Rat lung microvascular endothelial cells were grown on fibronectin coated chamber slides in complete MCDB-3 media for 24 hours. The cells were pre-treated with SCF (100 ng/ml) for 1 hour. The cells exposed to shock serum or were transfected with caspase-3 (5 μg/ml) for 60 minutes. Caspase-3 were exposed to TransIT (10 μl/ml) for 15 minutes before exposure to the cells. The cells were washed in PBS, permeabilized with Triton X-100 and fixed with 4% paraformaldehyde. The cells were then washed in PBS, blocked with 2.5% BSA-PBS and exposed to polyclonal antibody against β-catenin overnight at 4° C. The cells were washed, mounted in an antifade-DAPI mountant and visualized utilizing a fluorescent microscope.

## SCF: stem cell factor, a soluble factor (protein) produced by stem cells
caspase-3 5 μg/ml transfected 60 minutes
  caspase-3 mediated adherens junction disruption: did not protect
Shock serum 60 minutes
  shock serum-induced adherens junction disruption: showed protection
